Measured values: US20250170088A1, “METHOD AND COMPOSITION FOR IMPROVING INTESTINAL MICROFLORA” (NANJING NUTRABUILDING BIO-TECH CO., LTD., priority 2022, published 2025)

Experiments:
Type in all cases: in vivo
Details in all cases: obese mice induced by high-fat diet, 200 mg tributyrin daily, 8 weeks
Lactobacillus = experiment: 16s rRNA sequencing of fecal samples, relative abundance change of Lactobacillus
Klebsiella = experiment: 16s rRNA sequencing of fecal samples, relative abundance change of Klebsiella
Megamonas = experiment: 16s rRNA sequencing of fecal samples, relative abundance change of Megamonas
Akkermansia muciniphila = experiment: 16s rRNA sequencing of fecal samples, relative abundance change of Akkermansia muciniphila
Streptococcus gordonii = experiment: 16s rRNA sequencing of fecal samples, level of Streptococcus gordonii

## CCCC(=O)OCC(COC(=O)CCC)OC(=O)CCC [tributyrin, Tributyrin]
Lactobacillus
  increase of the level of Lactobacillus: 101%
Klebsiella
  decrease of the level of Klebsiella: 67%
Megamonas
  decrease of the level of Megamonas: 91%
Akkermansia muciniphila
  increase of the level of Akkermansia muciniphila: 119%
Streptococcus gordonii
  decrease of the level of Streptococcus gordonii: about 80%
